According to patent publication US6872730B2, “Substituted benzofurans and benzothiophenes, methods of making and methods of use as integrin antagonists” (3-Dimensional Pharmaceuticals, Inc., priority 2001, dated 2005):

target: T1, human αvβ3 (Homo sapiens, UniProt P05106+P06756); test: αvβ3-vitronectin assay; assay type: binding; conditions: ELISA plate coated with human αvβ3, biotinylated human vitronectin, room temperature; read-out: IC50 for inhibition of the αvβ3-vitronectin interaction
T1 construct: purchased Chemicon CC1019
T1 sequence (P06756 31-889 limits assumed): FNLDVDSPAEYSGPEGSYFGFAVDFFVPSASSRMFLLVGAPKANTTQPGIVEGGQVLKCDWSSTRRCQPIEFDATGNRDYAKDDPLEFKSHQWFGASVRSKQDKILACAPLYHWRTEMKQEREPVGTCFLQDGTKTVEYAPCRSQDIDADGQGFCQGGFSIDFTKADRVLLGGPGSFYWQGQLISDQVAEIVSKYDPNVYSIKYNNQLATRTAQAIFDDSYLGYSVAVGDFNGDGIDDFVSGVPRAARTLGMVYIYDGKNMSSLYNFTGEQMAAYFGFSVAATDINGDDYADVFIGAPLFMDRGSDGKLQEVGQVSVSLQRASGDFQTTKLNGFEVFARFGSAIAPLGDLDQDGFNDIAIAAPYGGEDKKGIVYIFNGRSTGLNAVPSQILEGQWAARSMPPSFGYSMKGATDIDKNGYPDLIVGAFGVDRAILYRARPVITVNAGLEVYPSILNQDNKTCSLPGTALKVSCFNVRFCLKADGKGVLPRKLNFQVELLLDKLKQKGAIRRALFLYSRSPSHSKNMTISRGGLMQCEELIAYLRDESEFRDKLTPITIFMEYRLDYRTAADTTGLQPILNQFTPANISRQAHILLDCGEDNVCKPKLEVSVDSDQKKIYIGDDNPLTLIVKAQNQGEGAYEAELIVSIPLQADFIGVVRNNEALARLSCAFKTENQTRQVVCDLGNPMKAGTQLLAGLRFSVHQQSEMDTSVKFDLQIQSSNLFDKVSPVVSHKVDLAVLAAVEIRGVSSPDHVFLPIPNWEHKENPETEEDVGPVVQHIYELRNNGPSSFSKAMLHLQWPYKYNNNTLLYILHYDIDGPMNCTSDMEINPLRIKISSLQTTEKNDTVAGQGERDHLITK
T1 sequence (P06756 891-1048 partner limits assumed): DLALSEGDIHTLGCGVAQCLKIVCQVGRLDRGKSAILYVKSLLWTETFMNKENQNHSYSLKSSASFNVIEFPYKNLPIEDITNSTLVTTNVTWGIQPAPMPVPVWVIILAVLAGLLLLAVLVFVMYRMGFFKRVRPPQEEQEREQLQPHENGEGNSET
T1 sequence (P05106 27-788): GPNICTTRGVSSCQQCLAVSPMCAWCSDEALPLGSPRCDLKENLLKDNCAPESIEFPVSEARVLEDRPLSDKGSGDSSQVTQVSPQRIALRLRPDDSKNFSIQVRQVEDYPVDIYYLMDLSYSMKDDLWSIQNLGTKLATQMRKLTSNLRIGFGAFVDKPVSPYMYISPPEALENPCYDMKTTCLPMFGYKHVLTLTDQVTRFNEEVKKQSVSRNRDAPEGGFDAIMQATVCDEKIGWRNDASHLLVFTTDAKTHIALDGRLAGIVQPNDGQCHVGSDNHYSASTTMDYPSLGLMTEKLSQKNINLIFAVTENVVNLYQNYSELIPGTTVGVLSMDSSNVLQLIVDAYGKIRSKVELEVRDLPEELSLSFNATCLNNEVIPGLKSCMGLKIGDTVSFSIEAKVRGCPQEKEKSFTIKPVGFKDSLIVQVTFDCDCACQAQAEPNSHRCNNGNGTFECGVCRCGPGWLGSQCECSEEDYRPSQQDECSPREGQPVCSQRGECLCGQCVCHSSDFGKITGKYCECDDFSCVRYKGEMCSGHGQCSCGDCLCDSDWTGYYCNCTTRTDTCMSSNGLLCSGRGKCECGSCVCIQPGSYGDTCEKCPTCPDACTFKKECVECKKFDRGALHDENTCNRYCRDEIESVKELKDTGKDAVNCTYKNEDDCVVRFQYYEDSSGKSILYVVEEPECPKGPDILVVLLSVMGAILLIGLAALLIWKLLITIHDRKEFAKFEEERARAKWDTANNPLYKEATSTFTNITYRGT
Description: The assay is based on the method of Dennis (Dennis, M. S., et al., Proteins 15: 312-321 (1993)). Costar 9018 flat-bottom 96-well ELISA plates were coated overnight at 4° C. with 100 μL/well of 10 μg/mL human fibrinogen (Calbiochem 341578) in 20 mM Tris-HCl pH 7.5, 150 mM NaCl, 2 mM CaCl2, 0.02% NaN3 (TAC buffer), and blocked for 1 hr at 37° C. with 150 μL/well of TAC buffer containing 0.05% Tween 20 and 1% bovine serum albumin (TACTB buffer). After washing 3 times with 200 μL/well of 10 mM Na2 HPO4 pH 7.5, 150 mM NaCl, 0.01% Tween 20 (PBST buffer), controls or test compound (0.027-20.0 μM) were mixed with 40 μg/mL human GPIIbIIIa (Enzyme Research Laboratories) in TACTB buffer, and 100 μL/well of these solutions were incubated for 1 hr at 37° C. The plate was then washed 5 times with PBST buffer, and 100 μL/well of a monoclonal anti-GPIIbIIIa antibody in TACTB buffer (1 μg/mL, Enzyme Research Laboratories MabGP2b3a) was incubated at 37° C. for 1 hr. After washing (5 times with PBST buffer), 100 μL /well of goat anti-mouse IgG conjugated to horseradish peroxidase (Kirkegaard & Perry 14-23-06) was incubated at 37° C. for 1 hr (25 ng/mL in PBST buffer), followed by a 6-fold PBST buffer wash. The plate was developed by adding 100 μL/well of 0.67 mg o-phenylenediamine dihydrochloride per mL of 0.012% H2O2, 22 mM sodium citrate, 50 mM sodium phosphate, pH 5.0 at room temperature. The reaction was stopped with 50 μL/well of 2M H2SO4, and the absorbence at 492 nm was recorded. Percent (%) inhibition was calculated from the average of three separate determinations relative to buffer controls (no test compound added), and a four parameter fit (Marquardt, D. W., J. Soc. Indust. Appl. Math. 11:431-441 (1963)) was used to estimate the half maximal inhibition concentration (IC50).
The assay was based on the method of Niiya (Niiya, K., et al., Blood 70:475-483 (1987)). […] Following a 5-fold PBST buffer wash, the plate was developed and results were calculated as described for the fibrinogen-IIbIIIa assay.

| SMILES | IC50 [nM] |
| --- | --- |
| CNc1cccc(CCOc2ccc3c(CCC(=O)O)csc3c2)n1 [Example 1, 3-(6-{2-[6-(methylamino)-2-pyridyl]ethoxy}benzo [b]thiophen-3-yl)propanoic acid] | 30 |
| O=C(O)CCc1csc2cc(OCCc3ccc4c(n3)NCCC4)ccc12 [Example 2, 3-{6-[2-(5,6,7,8-Tetrahydro-[1,8]naphthyridin-2-yl)-ethoxy]-benzo[b]thiophen-3-yl}-propionic acid] | 8 |
| CNc1cccc(CCOc2ccc3c(CCC(=O)O)coc3c2)n1 [Example 3, 3-(6-{2-[6-(Methylamino)-2-pyridyl]ethoxy}benzo[b]furan-3-yl)propanoic acid] | 33 |
